Experimental data from paper PMC10682503, “Structural and functional basis of inositol hexaphosphate stimulation of NHEJ through stabilization of Ku-XLF interaction” (Nucleic Acids Research, 2023).
Read-outs that look alike come from different tables or passages of the source.

Tests used:
[1] = target: T1, Ku-2E (Ku70-K357E, Ku80-K481E) (Homo sapiens, UniProt P12956+P13010, K357E/K481E); assay: nanoDSF thermal stability of Ku-2E; conditions: Ku-2E with DNA
T1 construct: 10x His-tag with TEV site (same vector as KuFL) (N); made in house; host or cells: Sf21 insect cells

KuFL-DNA interaction = target: T2, KuFL-DNA interaction (Homo sapiens, UniProt P12956+P13010); assay: switchSENSE kinetics of KuFL interaction with 48bp DNA; type: binding; conditions: IP6 3 μM
T2 construct: The full-length human Ku heterodimer subunits (Ku70 1–609, Ku80 1–732); 10x His-tag with TEV site (N); made in house; host or cells: Sf21 insect cells (baculovirus, MultiBac)
Experimental: (§1) switchSENSE: A DRX 2400 instrument and a multi-purpose 48bp chip were used for switchSENSE measurements (both Dynamic Biosensors GmbH; Planegg, Germany). The sample and running buffer was in 10 mM Tris HCl pH 7.4, 140 mM NaCl, 50 µM EDTA, 0.05 % Tween-20, 50µM EDTA. Kinetics experiments of Ku interaction with DNA in presence or absence of IP6 were performed on a DRX2 instrument. Complementary DNA to the strand immobilized on the chip was first hybridized on the measurement electrodes. The association and dissociation between Ku and DNA, with or without IP6 (3 µM) at Ku concentration (0-15-30-60-120-240 nM were measured in a flow rate of 200 µL/min. Kinetics experiments of Ku interaction with DNA and XLF with or without DNA were performed on a Helix instrument. The sample and running buffer was in 10 mM Tris HCl pH 7.4, 140 mM NaCl, 50 µM EDTA, 0.05 % Tween-20 with or without IP6 (20 µM). The flow rate of all conditions are at 500 µL/min.

Ku-DNA interaction = Ku-DNA interaction (Homo sapiens, UniProt P12956+P13010); assay: Single-molecule colocalization (TIRF) of Ku-AF647 on 18 bp DNA; type: binding; conditions: IP6 10 μM
Experimental: Single molecule labelling, and flow channel preparation for single-molecule colocalization experiment are described in Supplemental Information. A single-molecule experiment was performed on a Total Internal Reflection Fluorescence (TIRF) microscope equipped with an inverted oil immersion objective (×100, 1.49 NA lens) coupled to 532 nm (Ultra-Laser, MGL-FN-532) and 639 nm (Ultra-Laser, MGL-FN-639) excitation lasers to excite the sample at TIRF illumination. A dichroic beam splitter (Semrock, Di03-635-t1) was used to split green and red signals, which were passed through narrow bandpass filters (Semrock, FF01-582/64 and FF01-680/42). The signals were collected by an electron-multiplying charge-coupled device (EM-CCD) (Andor, iXon897). Fluorescence beads (Invitrogen, Life Technologies Corporation, Eugene, OR) were used to map corresponding signals in green and red channels.
The BSA in the flow channel was washed with T50 buffer. […] Movies of 1 000 frames (33 Hz) were recorded with the red laser and both lasers turned on for the first 900 frames and last 100 frames, respectively. Four independent experiments were performed where at least 20 movies were recorded for each experimental condition. […]
Fluorescent labelling of Ku. […] The labelled protein was determined to have 50 % labelling efficiency, spectrophotometrically. […]

Ku-XLF interaction = target: T3, Ku-XLF interaction (Homo sapiens, UniProt P12956+P13010); assay: switchSENSE analysis of Ku-DNA interaction with XLF; type: binding; conditions: IP6 20 μM; for Kd: biphasic fit
T3 construct: The full-length human Ku heterodimer subunits (Ku70 1–609, Ku80 1–732); 10x His-tag with TEV site (N); made in house; host or cells: Sf21 insect cells (Ku)
Experimental: as §1
A complementary DNA is hybridized onto an anchor DNA on the measurement chip in order to obtain a 96 base paired DNA with nick. KuFL is then captured under saturation condition (SI figure 13a and 13c). Association and dissociation between XLF and Ku-DNA is then monitored using 1, 2 or 8 µM of XLF, with or without IP6 in working buffer (SI figure 13c and d) . The fit is realised using biphasic model from BDS software.

Ku = target: Ku; parameters: method as in PMID 18776215; conditions: competition assays with 3H-IP6; cited from earlier work

T3 sequence (P12956 whole entry): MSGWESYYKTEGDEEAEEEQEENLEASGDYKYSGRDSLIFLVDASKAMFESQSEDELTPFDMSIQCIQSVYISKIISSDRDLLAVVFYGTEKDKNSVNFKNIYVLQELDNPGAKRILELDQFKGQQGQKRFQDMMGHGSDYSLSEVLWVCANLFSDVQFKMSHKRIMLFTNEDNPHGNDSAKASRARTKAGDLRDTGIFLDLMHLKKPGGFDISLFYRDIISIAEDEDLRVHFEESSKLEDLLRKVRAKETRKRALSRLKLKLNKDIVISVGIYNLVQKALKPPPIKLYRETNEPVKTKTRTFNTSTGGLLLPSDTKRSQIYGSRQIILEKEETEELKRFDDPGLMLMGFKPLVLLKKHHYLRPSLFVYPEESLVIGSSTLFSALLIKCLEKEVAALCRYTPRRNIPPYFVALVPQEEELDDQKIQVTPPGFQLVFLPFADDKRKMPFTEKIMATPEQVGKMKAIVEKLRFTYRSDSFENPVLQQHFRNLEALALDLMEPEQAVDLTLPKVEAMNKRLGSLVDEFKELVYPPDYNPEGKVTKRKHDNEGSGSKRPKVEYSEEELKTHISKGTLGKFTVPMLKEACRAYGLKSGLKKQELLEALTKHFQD
T3 sequence (P13010 whole entry): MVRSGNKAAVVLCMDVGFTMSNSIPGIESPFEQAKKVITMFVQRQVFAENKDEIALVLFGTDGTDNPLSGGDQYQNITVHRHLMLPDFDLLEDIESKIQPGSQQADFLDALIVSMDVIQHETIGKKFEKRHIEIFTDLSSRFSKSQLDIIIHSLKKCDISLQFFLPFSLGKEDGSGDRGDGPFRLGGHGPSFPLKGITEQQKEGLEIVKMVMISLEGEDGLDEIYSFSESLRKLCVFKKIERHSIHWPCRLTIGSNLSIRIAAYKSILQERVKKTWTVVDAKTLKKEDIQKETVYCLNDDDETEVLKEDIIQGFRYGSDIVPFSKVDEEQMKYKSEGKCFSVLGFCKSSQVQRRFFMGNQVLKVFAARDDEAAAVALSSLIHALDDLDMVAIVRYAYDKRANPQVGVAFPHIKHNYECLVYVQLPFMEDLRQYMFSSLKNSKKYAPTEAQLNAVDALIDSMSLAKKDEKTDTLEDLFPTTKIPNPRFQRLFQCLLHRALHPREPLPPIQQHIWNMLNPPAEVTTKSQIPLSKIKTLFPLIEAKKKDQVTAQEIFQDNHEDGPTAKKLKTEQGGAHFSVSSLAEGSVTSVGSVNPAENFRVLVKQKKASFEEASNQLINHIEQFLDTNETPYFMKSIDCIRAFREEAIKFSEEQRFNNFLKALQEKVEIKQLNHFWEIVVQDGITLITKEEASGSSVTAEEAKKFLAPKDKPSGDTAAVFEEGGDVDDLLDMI
T3 sequence (Q9H9Q4 whole entry partner): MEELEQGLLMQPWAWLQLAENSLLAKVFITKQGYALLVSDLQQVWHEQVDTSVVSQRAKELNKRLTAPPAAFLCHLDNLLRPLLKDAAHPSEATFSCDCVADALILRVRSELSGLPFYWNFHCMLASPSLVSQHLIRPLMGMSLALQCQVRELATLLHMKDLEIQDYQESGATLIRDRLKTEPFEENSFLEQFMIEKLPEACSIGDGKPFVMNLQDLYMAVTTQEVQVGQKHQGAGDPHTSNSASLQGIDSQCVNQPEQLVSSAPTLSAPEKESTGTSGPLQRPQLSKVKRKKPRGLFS
Ku-DNA interaction, sequence (P12956 whole entry): as the sequence (P12956 whole entry) above
Ku-DNA interaction, sequence (P13010 whole entry): as the sequence (P13010 whole entry) above
T1 sequence (P12956 whole entry K357E): as the sequence (P12956 whole entry) above, with K357E counted along it
T1 sequence (P13010 whole entry K481E): as the sequence (P13010 whole entry) above, with K481E counted along it
T2 sequence (P12956 whole entry): as the sequence (P12956 whole entry) above
T2 sequence (P13010 whole entry): as the sequence (P13010 whole entry) above

O=P(O)(O)O[C@H]1[C@H](OP(=O)(O)O)[C@@H](OP(=O)(O)O)[C@H](OP(=O)(O)O)[C@@H](OP(=O)(O)O)[C@H]1OP(=O)(O)O [IP6, inositol hexaphosphate]
extra thermal stabilization by IP6 [1]: no extra stabilization
effect on Ku-DNA interaction (KuFL-DNA interaction): slight stimulation of the interaction
kinetic dissociation constant (kOFF) of Ku from dsDNA (Ku-DNA interaction): decreases
residence times of Ku on DNA (Ku-DNA interaction): slightly increases
KD1 stronger with IP6 than in absence of IP6 (Ku-XLF interaction): 3 fold
KD2 stronger with IP6 than in absence of IP6 (Ku-XLF interaction): 14 fold
Kd (Ku-XLF interaction; without IP6 1.9 ± 0.8, read-out: KD2, apparent affinity between Ku and XLF): 0.13 ± 0.009 µM
Kd (Ku-XLF interaction; without IP6 3.6 ± 0.6, read-out: KD1, apparent affinity between Ku and XLF): 1.2 ± 0.15 µM
Kd (Ku): 0.046 µM
